From publication PMC10878032 (Molecular cancer therapeutics, 2023)
Where a SMILES comes first, the peptide text is derived from it. The star is where a group is joined. Cbz = O=C(OCc1ccccc1)*

What was measured:
bladder cancer = details: cited from earlier work
[1] = cited from earlier work
[2] = tested on: MCF-7 breast cancer cells; assay: immunoblot of substrate acetylation in MCF-7 cells; type: cell-based, human; details: SP-2-225 10 μmol/L, SAHA and SP-1–161 1 μmol/L, Western blot
MCF-7 cells = assay: aggresome formation and immunostaining; type: cell-based, human; details: MCF-7, 24 hours; SP-2-225 10 μmol/L, MG-132 5 μmol/L

**Q.** For `O=C(CCCCCCC(=O)Nc1ccc([C@H]2O[C@@H](CSc3nc(-c4ccccc4)c(-c4ccccc4)o3)C[C@@H](c3ccc(CO)cc3)O2)cc1)NO` [Tubacin], which radiosensitization effect (bladder cancer) is on record?
**A.** demonstrated radiosensitization effect

**Q.** For `Cc1[nH]c2ccccc2c1CCNCc1ccc(/C=C/C(=O)NO)cc1` [LBH589], which direct cytotoxic effect [1] is on record?
**A.** direct cytotoxic effect even at nanomolar concentrations

**Q.** For `O=C(CCCCCCC(=O)Nc1ccccc1)NO` [SAHA, suberoylanilide hydroxamic acid], which “acetylation of histone H3” value [2] is on record?
**A.** increased the acetylation of α-tubulin and histone H3

**Q.** What about the “acetylation of α-tubulin” value [2] of the same molecule?
**A.** increased the acetylation of α-tubulin

**Q.** For `CC(C)C[C@@H](C=O)NC(=O)[C@H](CC(C)C)NC(=O)[C@H](CC(C)C)NC(=O)OCc1ccccc1` [MG-132] (Cbz-Leu-Leu-Leu-aldehyde), which aggresome formation (MCF-7 cells) is on record?
**A.** significant aggresome formation
